Where two headings read alike, the source gives them in different places.
Tests used:
[1] = tested on: microfilaria of Dirofilaria immitis; assay: Method C: microfilaria of Dirofilaria immitis motility screen; type: cell-based; conditions: read-out: inhibition of the microfilaria's motility
Haemonchus contortus = assay: Method A: Haemonchus contortus L1 larval development/motility screen in microtitre plate; type: cell-based; conditions: 96 h, read-out: motility inhibition

Row | Structure (SMILES) | inhibition at 5 ppm ([1]; 24 h) | inhibition at 5 µM (Haemonchus contortus) | inhibition at 10 µM ([1]; 24 h) | further results
1 | O=[N+]([O-])c1ccc(N[C@H]2CC[C@H](Oc3ccnc(N4CCN(C/C=C/c5ccc(C(F)(F)F)cc5)CC4)c3)CC2)cc1C(F)(F)F [Compound 76] | ≥ 90% | ≥ 90% |  | 
2 | O=[N+]([O-])c1ccc(N[C@H]2CC[C@H](Oc3cc(N4CCN(C(=S)Nc5ccc(F)cc5)CC4)ccn3)CC2)cc1C(F)(F)F [Compound 89] | ≥ 90% | ≥ 90% |  | 
3 | CCCN1CCN(c2cncc(O[C@H]3CC[C@H](Nc4ccc([N+](=O)[O-])c(C(F)(F)F)c4)CC3)c2)CC1 [Compound 77] |  | ≥ 90% | ≥ 90% | 
4 | COCCOCC(=O)N1CCN(c2cc(O[C@H]3CC[C@H](Nc4ccc([N+](=O)[O-])c(C(F)(F)F)c4)CC3)ccn2)CC1 [Compound 72] |  | ≥ 90% | ≥ 90% | 
5 | CC(C)(C)CN1CCN(c2cc(O[C@H]3CC[C@H](Nc4ccc([N+](=O)[O-])c(C(F)(F)F)c4)CC3)ccn2)CC1 [Compound 67] |  | ≥ 90% |  | inhibition at 10 µM ([1]; 10 μM, 24 hours): ≥ 90%
6 | CC(C)(C)CN1CCN(c2cncc(O[C@H]3CC[C@H](Nc4ccc([N+](=O)[O-])c(C(F)(F)F)c4)CC3)c2)CC1 [Compound 54] |  | ≥ 90% |  | inhibition at 10 µM ([1]; 10 μM, 24 hours): ≥ 90%
7 | O=C(CC(F)(F)F)N1CCN(c2cc(O[C@H]3CC[C@H](Nc4ccc([N+](=O)[O-])c(C(F)(F)F)c4)CC3)ccn2)CC1 [Compound 71] |  | ≥ 90% | ≥ 90% | 
8 | CCNC(=O)N1CCN(c2ccnc(O[C@H]3CC[C@H](Nc4ccc([N+](=O)[O-])c(C(F)(F)F)c4)CC3)c2)CC1 [Compound 96] |  | ≥ 90% | ≥ 90% | 
9 | CCCNC(=O)N1CCN(c2cncc(O[C@H]3CC[C@H](Nc4ccc([N+](=O)[O-])c(C(F)(F)F)c4)CC3)c2)CC1 [Compound 95] |  | ≥ 90% |  | inhibition at 10 µM ([1]; 10 μM, 24 hours): ≥ 90%
10 | O=C(Cc1ccc(C(F)(F)F)cc1)N1CCN(c2ccnc(O[C@H]3CC[C@H](Nc4ccc([N+](=O)[O-])c(C(F)(F)F)c4)CC3)c2)CC1 [Compound 61] | ≥ 90% | ≥ 90% |  | 
11 | CCC(=O)N1CCN(c2cncc(O[C@H]3CC[C@H](Nc4ccc([N+](=O)[O-])c(C(F)(F)F)c4)CC3)c2)CC1 [Compound 64] | ≥ 90% | ≥ 90% |  | 
12 | CC(C)(C)CC(=O)N1CCN(c2cc(O[C@H]3CC[C@H](Nc4ccc([N+](=O)[O-])c(C(F)(F)F)c4)CC3)ccn2)CC1 [Compound 33] |  | ≥ 90% | ≥ 90% | 
13 | O=[N+]([O-])c1ccc(N[C@H]2CC[C@H](Oc3cc(N4CCN(CC5CCCC5)CC4)ccn3)CC2)cc1C(F)(F)F [Compound 47] |  | ≥ 90% | ≥ 90% | 
14 | N#Cc1ccc(N[C@H]2CC[C@H](Oc3cncc(N4CCN(Cc5ccc(C(F)(F)F)cc5)CC4)c3)CC2)cc1C(F)(F)F [Compound 181] |  | ≥ 90% | ≥ 90% | 
15 | O=C(NC1CCCC1)N1CCN(c2cncc(O[C@H]3CC[C@H](Nc4ccc([N+](=O)[O-])c(C(F)(F)F)c4)CC3)c2)CC1 [Compound 82] |  | ≥ 90% | ≥ 90% | 
16 | O=[N+]([O-])c1ccc(N[C@H]2CC[C@H](Oc3cncc(N4CCN(C/C=C/c5ccc(C(F)(F)F)cc5)CC4)c3)CC2)cc1C(F)(F)F [Compound 48] | ≥ 90% | ≥ 90% |  | 
17 | CCCC(=O)N1CCN(c2ccnc(O[C@H]3CC[C@H](Nc4ccc([N+](=O)[O-])c(C(F)(F)F)c4)CC3)c2)CC1 [Compound 39] | ≥ 90% | ≥ 90% |  | 
18 | O=C(Oc1ccc(F)cc1)N1CCN(c2ccnc(O[C@H]3CC[C@H](Nc4ccc([N+](=O)[O-])c(C(F)(F)F)c4)CC3)c2)CC1 [Compound 30] | ≥ 90% | ≥ 90% |  | 
19 | N#Cc1ccc(N[C@H]2CC[C@H](Oc3ccnc(N4CCN(C(=O)CC5CCCC5)CC4)c3)CC2)cc1C(F)(F)F [Compound 177] |  | ≥ 90% | ≥ 90% | 
20 | CCCNC(=O)N1CCN(c2ccnc(O[C@H]3CC[C@H](Nc4ccc([N+](=O)[O-])c(C(F)(F)F)c4)CC3)c2)CC1 [Compound 85] |  | ≥ 90% |  | inhibition at 5 ppm ([1]; 5 ppm, 24 hours): ≥ 90%
21 | O=C(Cc1ccc(F)cc1)N1CCN(c2cc(O[C@H]3CC[C@H](Nc4ccc([N+](=O)[O-])c(C(F)(F)F)c4)CC3)ccn2)CC1 [Compound 46] |  | ≥ 90% | ≥ 90% | 
22 | O=[N+]([O-])c1ccc(N[C@H]2CC[C@H](Oc3ccnc(N4CCN(Cc5nc6cc(C(F)(F)F)ccc6s5)CC4)c3)CC2)cc1C(F)(F)F [Compound 86] | ≥ 90% | ≥ 90% |  | 
23 | N#Cc1ccc(N[C@H]2CC[C@H](Oc3cc(N4CCN(C(=O)CC5CCCC5)CC4)ccn3)CC2)cc1C(F)(F)F [Compound 183] |  | ≥ 90% | ≥ 90% | 

Row | Structure (SMILES) | inhibition at 5 ppm ([1]; 24 h) | inhibition at 5 µM (Haemonchus contortus) | inhibition at 10 µM ([1]; 24 h) | further results
24 | CC(C)(C)NC(=O)N1CCN(c2cc(O[C@H]3CC[C@H](Nc4ccc([N+](=O)[O-])c(C(F)(F)F)c4)CC3)ccn2)CC1 [Compound 49] |  | ≥ 90% | ≥ 90% | 
25 | CC(C)(C)OC(=O)N1CCN(c2ccnc(O[C@H]3CC[C@H](Nc4ccc(C#N)c(C(F)(F)F)c4)CC3)c2)CC1 [Compound 59] |  | ≥ 90% | ≥ 90% | 
26 | CCCOC(=O)N1CCN(c2cc(O[C@H]3CC[C@H](Nc4ccc([N+](=O)[O-])c(C(F)(F)F)c4)CC3)ccn2)CC1 [Compound 26] |  | ≥ 90% | ≥ 90% | 
27 | CC(C)(C)NC(=O)N1CCN(c2cncc(O[C@H]3CC[C@H](Nc4ccc([N+](=O)[O-])c(C(F)(F)F)c4)CC3)c2)CC1 [Compound 66] | ≥ 90% | ≥ 90% |  | 
28 | CC(C)(C)NC(=O)N1CCN(c2ccnc(O[C@H]3CC[C@H](Nc4ccc([N+](=O)[O-])c(C(F)(F)F)c4)CC3)c2)CC1 [Compound 65, N-tert-butyl-4-[2-[(4-[[4-nitro-3-(trifluoromethyl)phenyl]amino]cyclohexyl)oxy]pyridin-4-yl]piper-azine-1-carboxamide] | ≥ 90% | ≥ 90% |  | 
29 | CCOC(=O)N1CCN(c2cncc(O[C@H]3CC[C@H](Nc4ccc([N+](=O)[O-])c(C(F)(F)F)c4)CC3)c2)CC1 [Compound 38] | ≥ 90% | ≥ 90% |  | 
30 | CCOCCC(=O)N1CCN(c2cc(O[C@H]3CC[C@H](Nc4ccc([N+](=O)[O-])c(C(F)(F)F)c4)CC3)ccn2)CC1 [Compound 70] |  | ≥ 90% | ≥ 90% | 
31 | O=C(NC1CCCC1)N1CCN(c2ccnc(O[C@H]3CC[C@H](Nc4ccc([N+](=O)[O-])c(C(F)(F)F)c4)CC3)c2)CC1 [Compound 69] |  | ≥ 90% | ≥ 90% | 
32 | O=C(OC1CCCC1)N1CCN(c2cncc(O[C@H]3CC[C@H](Nc4ccc([N+](=O)[O-])c(C(F)(F)F)c4)CC3)c2)CC1 [Compound 196, cyclopentyl 4-(5-[[4-[[4-nitro-3-(trifluoromethyl)phenyl]amino]cyclohexyl]oxy]pyridin-3-yl)piperazine-1-carboxylate] | ≥ 90% | ≥ 90% |  | 
33 | CC(C)(C)OC(=O)N1CCN(c2ccc(O[C@H]3CC[C@H](Nc4ccc([N+](=O)[O-])c(C(F)(F)F)c4)CC3)cn2)CC1 [Compound 83] | ≥ 90% | ≥ 90% |  | 
34 | CCC(=O)N1CCN(c2cc(O[C@H]3CC[C@H](Nc4ccc([N+](=O)[O-])c(C(F)(F)F)c4)CC3)ccn2)CC1 [Compound 60] |  | ≥ 90% |  | inhibition at 10 µM ([1]; 10 μM, 24 hours): ≥ 90%
35 | CCCN1CCN(c2ccnc(O[C@H]3CC[C@H](Nc4ccc([N+](=O)[O-])c(C(F)(F)F)c4)CC3)c2)CC1 [Compound 87] |  | ≥ 90% | ≥ 90% | 
36 | CC(C)(C)CC(=O)N1CCN(c2ccnc(O[C@H]3CC[C@H](Nc4ccc([N+](=O)[O-])c(C(F)(F)F)c4)CC3)c2)CC1 [Compound 25] |  | ≥ 90% | ≥ 90% | 
37 | O=C(CC1CCCC1)N1CCN(c2cc(O[C@H]3CC[C@H](Nc4ccc(S(=O)(=O)C(F)(F)F)cc4)CC3)ccn2)CC1 [Compound 188] |  | ≥ 90% | ≥ 90% | 
38 | CCCCN1CCN(c2cc(O[C@H]3CC[C@H](Nc4ccc([N+](=O)[O-])c(C(F)(F)F)c4)CC3)ccn2)CC1 [Compound 41] |  | ≥ 90% | ≥ 90% | 
39 | O=[N+]([O-])c1ccc(N[C@H]2CC[C@H](Oc3cc(N4CCN(C(=S)NC5CCCC5)CC4)ccn3)CC2)cc1C(F)(F)F [Compound 81] | ≥ 90% | ≥ 90% |  | inhibition at 1 ppm ([1]; 24 h): ≥ 90%
40 | O=C(Nc1ccc(F)cc1)N1CCN(c2cncc(O[C@H]3CC[C@H](Nc4ccc([N+](=O)[O-])c(C(F)(F)F)c4)CC3)c2)CC1 [Compound 106] |  | ≥ 90% |  | inhibition at 10 µM ([1]; 10 μM, 24 hours): ≥ 90%
41 | O=C(CC1CC1)N1CCN(c2cc(O[C@H]3CC[C@H](Nc4ccc([N+](=O)[O-])c(C(F)(F)F)c4)CC3)ccn2)CC1 [Compound 28] |  | ≥ 90% | ≥ 90% | 
42 | O=[N+]([O-])c1ccc(N[C@H]2CC[C@H](Oc3cncc(N4CCN(C(=S)NC5CCCC5)CC4)c3)CC2)cc1C(F)(F)F [Compound 79] | ≥ 90% | ≥ 90% |  | 
43 | COC(=O)N1CCN(c2cc(O[C@H]3CC[C@H](Nc4ccc([N+](=O)[O-])c(C(F)(F)F)c4)CC3)ccn2)CC1 [Compound 75] |  | ≥ 90% |  | inhibition at 10 µM ([1]; 10 μM, 24 hours): ≥ 90%
44 | CCCCN1CCN(c2cncc(O[C@H]3CC[C@H](Nc4ccc([N+](=O)[O-])c(C(F)(F)F)c4)CC3)c2)CC1 [Compound 53] |  | ≥ 90% | ≥ 90% | 
45 | O=C(N1CCN(c2ccnc(O[C@H]3CC[C@H](Nc4ccc([N+](=O)[O-])c(C(F)(F)F)c4)CC3)c2)CC1)C(F)(F)F [Compound 58] |  | ≥ 90% |  | inhibition at 5 ppm ([1]; 5 ppm, 24 hours): ≥ 90%
46 | CCCN1CCN(c2cc(O[C@H]3CC[C@H](Nc4ccc([N+](=O)[O-])c(C(F)(F)F)c4)CC3)ccn2)CC1 [Compound 78] |  | ≥ 90% |  | inhibition at 10 µM ([1]; 10 μM, 24 hours): ≥ 90%

From US10597364B2, “Anthelmintic compounds, compositions and method of using thereof” (priority 2015, dated 2020)
